According to ChEMBL document CHEMBL3085752, “Novel isatin-based hydroxamic acids as histone deacetylase inhibitors and antitumor agents” (Eur J Med Chem, 2013):
Calls of active or inactive are those of the source. The calls are words filed in the database; no cut-off is given here.

Test system: MCF7
Assay: Antiproliferative activity against human MCF7 cells after 48 hrs by SRB assay
Type: functional, cell-based
Settings: MCF7, 48 h

SMILES | IC50 [nM]
Cc1ccc2c(c1)/C(=N/O)C(=O)N2CCCCCCC(=O)NO | 1190
CO/N=C1/C(=O)N(CCCCCCC(=O)NO)c2ccccc21 | 1710
O=C(CCCCCCN1C(=O)/C(=N\O)c2cc(Cl)ccc21)NO | 680
CO/N=C1/C(=O)N(CCCCCCC(=O)NO)c2ccc(C)cc21 | 16700
O=C(CCCCCCN1C(=O)/C(=N\O)c2cc([N+](=O)[O-])ccc21)NO | 1340
O=C(CCCCCCN1C(=O)/C(=N\O)c2ccccc21)NO | 790
O=C(CCCCCCN1C(=O)/C(=N\O)c2cccc(Cl)c21)NO | 1740

Continued by falling IC50, values first:

IC50 [nM] | SMILES
7790 | CO/N=C1/C(=O)N(CCCCCCC(=O)NO)c2ccc(Br)cc21
2420 | CO/N=C1/C(=O)N(CCCCCCC(=O)NO)c2ccc(F)cc21
1770 | O=C(CCCCCCN1C(=O)/C(=N\O)c2cc(Br)ccc21)NO
1560 | CO/N=C1/C(=O)N(CCCCCCC(=O)NO)c2ccc(Cl)cc21
1550 | O=C(CCCCCCN1C(=O)/C(=N\O)c2cc(F)ccc21)NO
940 | CO/N=C1\C(=O)N(CCCCCCC(=O)NO)c2ccc([N+](=O)[O-])cc21
340 | CO/N=C1/C(=O)N(CCCCCCC(=O)NO)c2c(Cl)cccc21

Test system: SW-620
Assay: Antiproliferative activity against human SW620 cells at 30 uM after 48 hrs by SRB assay
Type: functional, cell-based
Settings: not given

SMILES | Activity
Cc1ccc2c(c1)/C(=N/O)C(=O)N2CCCCCCC(=O)NO | Active
CO/N=C1/C(=O)N(CCCCCCC(=O)NO)c2ccc(Br)cc21 | Active
CO/N=C1/C(=O)N(CCCCCCC(=O)NO)c2ccccc21 | Active
O=C(CCCCCCN1C(=O)/C(=N\O)c2cc(Cl)ccc21)NO | Active
CO/N=C1/C(=O)N(CCCCCCC(=O)NO)c2ccc(C)cc21 | Active
CO/N=C1\C(=O)N(CCCCCCC(=O)NO)c2ccc([N+](=O)[O-])cc21 | Active
O=C(CCCCCCN1C(=O)/C(=N\O)c2cc([N+](=O)[O-])ccc21)NO | Active
CO/N=C1/C(=O)N(CCCCCCC(=O)NO)c2ccc(F)cc21 | Active
CO/N=C1/C(=O)N(CCCCCCC(=O)NO)c2ccc(Cl)cc21 | Active
O=C(CCCCCCN1C(=O)/C(=N\O)c2cc(F)ccc21)NO | Active
O=C(CCCCCCN1C(=O)/C(=N\O)c2ccccc21)NO | Active
O=C(CCCCCCN1C(=O)/C(=N\O)c2cc(Br)ccc21)NO | Active

Test system: ASPC1
Assay: Antiproliferative activity against human AsPC1 cells after 48 hrs by SRB assay
Type: functional, cell-based
Settings: ASPC1, 48 h

SMILES | IC50 [nM]
Cc1ccc2c(c1)/C(=N/O)C(=O)N2CCCCCCC(=O)NO | 2440
CO/N=C1/C(=O)N(CCCCCCC(=O)NO)c2ccccc21 | 1220
O=C(CCCCCCN1C(=O)/C(=N\O)c2cc(Cl)ccc21)NO | 1860
CO/N=C1/C(=O)N(CCCCCCC(=O)NO)c2ccc(C)cc21 | 5480
O=C(CCCCCCN1C(=O)/C(=N\O)c2cc([N+](=O)[O-])ccc21)NO | 4680
O=C(CCCCCCN1C(=O)/C(=N\O)c2ccccc21)NO | 1100
O=C(CCCCCCN1C(=O)/C(=N\O)c2cccc(Cl)c21)NO | 1820

Second part, the compound after the results:

IC50 [nM] | SMILES
1680 | CO/N=C1/C(=O)N(CCCCCCC(=O)NO)c2ccc(Br)cc21
970 | CO/N=C1/C(=O)N(CCCCCCC(=O)NO)c2ccc(F)cc21
80 | O=C(CCCCCCN1C(=O)/C(=N\O)c2cc(Br)ccc21)NO
490 | CO/N=C1/C(=O)N(CCCCCCC(=O)NO)c2ccc(Cl)cc21
1720 | O=C(CCCCCCN1C(=O)/C(=N\O)c2cc(F)ccc21)NO
840 | CO/N=C1\C(=O)N(CCCCCCC(=O)NO)c2ccc([N+](=O)[O-])cc21
630 | CO/N=C1/C(=O)N(CCCCCCC(=O)NO)c2c(Cl)cccc21

Test system: SW-620
Assay: Ratio of SAHA IC50 to compound IC50 for human SW620 cells
Type: functional
Settings: not given

SMILES | Ratio IC50
O=C(CCCCCCN1C(=O)/C(=N\O)c2cc(F)ccc21)NO | 30

Test system: ASPC1
Assay: Ratio of SAHA IC50 to compound IC50 for human AsPC1 cells
Type: functional
Settings: not given

SMILES | Ratio IC50
O=C(CCCCCCN1C(=O)/C(=N\O)c2cc(Br)ccc21)NO | 45

Biological target: T1, Histone deacetylase (Homo sapiens) (UniProt Q13547+O15379+Q9UBN7+Q92769+Q9UQL6+Q8WUI4+Q9BY41+Q96DB2+P56524+Q9UKV0+Q969S8)
Assay: Inhibition of HDAC in human SW620 cells assessed as acetylated histone-H4 level at 1 uM after 24 hrs by Western blotting analysis
Type: cell-based
Settings: SW-620

SMILES | inhibition
Cc1ccc2c(c1)/C(=N/O)C(=O)N2CCCCCCC(=O)NO | Active
CO/N=C1/C(=O)N(CCCCCCC(=O)NO)c2ccccc21 | Active
O=C(CCCCCCN1C(=O)/C(=N\O)c2cc(Cl)ccc21)NO | Active
CO/N=C1/C(=O)N(CCCCCCC(=O)NO)c2ccc(C)cc21 | inactive
O=C(CCCCCCN1C(=O)/C(=N\O)c2cc([N+](=O)[O-])ccc21)NO | inactive
O=C(CCCCCCN1C(=O)/C(=N\O)c2ccccc21)NO | Active
O=C(CCCCCCN1C(=O)/C(=N\O)c2cccc(Cl)c21)NO | Active

Further lines, results first:

inhibition | SMILES
Active | CO/N=C1/C(=O)N(CCCCCCC(=O)NO)c2ccc(Br)cc21
Active | CO/N=C1/C(=O)N(CCCCCCC(=O)NO)c2ccc(F)cc21
Active | O=C(CCCCCCN1C(=O)/C(=N\O)c2cc(Br)ccc21)NO
Active | CO/N=C1/C(=O)N(CCCCCCC(=O)NO)c2ccc(Cl)cc21
Active | O=C(CCCCCCN1C(=O)/C(=N\O)c2cc(F)ccc21)NO
inactive | CO/N=C1\C(=O)N(CCCCCCC(=O)NO)c2ccc([N+](=O)[O-])cc21
Active | CO/N=C1/C(=O)N(CCCCCCC(=O)NO)c2c(Cl)cccc21

Biological target: T1, Histone deacetylase (Homo sapiens)
Assay: Inhibition of HDAC in human SW620 cells assessed as acetylated histone-H3 level at 1 uM after 24 hrs by Western blotting analysis
Type: cell-based
Settings: SW-620

SMILES | inhibition
Cc1ccc2c(c1)/C(=N/O)C(=O)N2CCCCCCC(=O)NO | Active
CO/N=C1/C(=O)N(CCCCCCC(=O)NO)c2ccccc21 | Active
O=C(CCCCCCN1C(=O)/C(=N\O)c2cc(Cl)ccc21)NO | Active
CO/N=C1/C(=O)N(CCCCCCC(=O)NO)c2ccc(C)cc21 | inactive
O=C(CCCCCCN1C(=O)/C(=N\O)c2cc([N+](=O)[O-])ccc21)NO | inactive
O=C(CCCCCCN1C(=O)/C(=N\O)c2ccccc21)NO | Active
O=C(CCCCCCN1C(=O)/C(=N\O)c2cccc(Cl)c21)NO | Active

The next lines start with the values.

inhibition | SMILES
Active | CO/N=C1/C(=O)N(CCCCCCC(=O)NO)c2ccc(Br)cc21
Active | CO/N=C1/C(=O)N(CCCCCCC(=O)NO)c2ccc(F)cc21
Active | O=C(CCCCCCN1C(=O)/C(=N\O)c2cc(Br)ccc21)NO
Active | CO/N=C1/C(=O)N(CCCCCCC(=O)NO)c2ccc(Cl)cc21
Active | O=C(CCCCCCN1C(=O)/C(=N\O)c2cc(F)ccc21)NO
inactive | CO/N=C1\C(=O)N(CCCCCCC(=O)NO)c2ccc([N+](=O)[O-])cc21
Active | CO/N=C1/C(=O)N(CCCCCCC(=O)NO)c2c(Cl)cccc21

Test system: PC-3
Assay: Antiproliferative activity against human PC3 cells after 48 hrs by SRB assay
Type: functional, cell-based
Settings: PC-3, 48 h

SMILES | IC50 [nM]
Cc1ccc2c(c1)/C(=N/O)C(=O)N2CCCCCCC(=O)NO | 620
CO/N=C1/C(=O)N(CCCCCCC(=O)NO)c2ccccc21 | 1670
O=C(CCCCCCN1C(=O)/C(=N\O)c2cc(Cl)ccc21)NO | 850
CO/N=C1/C(=O)N(CCCCCCC(=O)NO)c2ccc(C)cc21 | 350
O=C(CCCCCCN1C(=O)/C(=N\O)c2cc([N+](=O)[O-])ccc21)NO | 19700
O=C(CCCCCCN1C(=O)/C(=N\O)c2ccccc21)NO | 980
O=C(CCCCCCN1C(=O)/C(=N\O)c2cccc(Cl)c21)NO | 1570

Further lines, results first:

IC50 [nM] | SMILES
8910 | CO/N=C1/C(=O)N(CCCCCCC(=O)NO)c2ccc(Br)cc21
1150 | CO/N=C1/C(=O)N(CCCCCCC(=O)NO)c2ccc(F)cc21
2210 | O=C(CCCCCCN1C(=O)/C(=N\O)c2cc(Br)ccc21)NO
2330 | CO/N=C1/C(=O)N(CCCCCCC(=O)NO)c2ccc(Cl)cc21
2730 | O=C(CCCCCCN1C(=O)/C(=N\O)c2cc(F)ccc21)NO
1690 | CO/N=C1\C(=O)N(CCCCCCC(=O)NO)c2ccc([N+](=O)[O-])cc21
290 | CO/N=C1/C(=O)N(CCCCCCC(=O)NO)c2c(Cl)cccc21

Test system: NCI-H460
Assay: Antiproliferative activity against human NCI-H460 cells after 48 hrs by SRB assay
Type: functional, cell-based
Settings: NCI-H460, 48 h

SMILES | IC50 [nM]
Cc1ccc2c(c1)/C(=N/O)C(=O)N2CCCCCCC(=O)NO | 2090
CO/N=C1/C(=O)N(CCCCCCC(=O)NO)c2ccccc21 | 750
O=C(CCCCCCN1C(=O)/C(=N\O)c2cc(Cl)ccc21)NO | 850
CO/N=C1/C(=O)N(CCCCCCC(=O)NO)c2ccc(C)cc21 | 1190
O=C(CCCCCCN1C(=O)/C(=N\O)c2cc([N+](=O)[O-])ccc21)NO | 7710
O=C(CCCCCCN1C(=O)/C(=N\O)c2ccccc21)NO | 890
O=C(CCCCCCN1C(=O)/C(=N\O)c2cccc(Cl)c21)NO | 1350

Next, values leading:

IC50 [nM] | SMILES
2900 | CO/N=C1/C(=O)N(CCCCCCC(=O)NO)c2ccc(Br)cc21
970 | CO/N=C1/C(=O)N(CCCCCCC(=O)NO)c2ccc(F)cc21
970 | O=C(CCCCCCN1C(=O)/C(=N\O)c2cc(Br)ccc21)NO
760 | CO/N=C1/C(=O)N(CCCCCCC(=O)NO)c2ccc(Cl)cc21
1500 | O=C(CCCCCCN1C(=O)/C(=N\O)c2cc(F)ccc21)NO
14300 | CO/N=C1\C(=O)N(CCCCCCC(=O)NO)c2ccc([N+](=O)[O-])cc21
350 | CO/N=C1/C(=O)N(CCCCCCC(=O)NO)c2c(Cl)cccc21

Test system: SW-620
Assay: Antiproliferative activity against human SW620 cells after 48 hrs by SRB assay
Type: functional, cell-based
Settings: SW-620, 48 h

SMILES | IC50 [nM]
Cc1ccc2c(c1)/C(=N/O)C(=O)N2CCCCCCC(=O)NO | 990
CO/N=C1/C(=O)N(CCCCCCC(=O)NO)c2ccccc21 | 730
O=C(CCCCCCN1C(=O)/C(=N\O)c2cc(Cl)ccc21)NO | 650
CO/N=C1/C(=O)N(CCCCCCC(=O)NO)c2ccc(C)cc21 | 1070
O=C(CCCCCCN1C(=O)/C(=N\O)c2cc([N+](=O)[O-])ccc21)NO | 3390
O=C(CCCCCCN1C(=O)/C(=N\O)c2ccccc21)NO | 640
O=C(CCCCCCN1C(=O)/C(=N\O)c2cccc(Cl)c21)NO | 1050

Now from value to compound:

IC50 [nM] | SMILES
2320 | CO/N=C1/C(=O)N(CCCCCCC(=O)NO)c2ccc(Br)cc21
1110 | CO/N=C1/C(=O)N(CCCCCCC(=O)NO)c2ccc(F)cc21
290 | O=C(CCCCCCN1C(=O)/C(=N\O)c2cc(Br)ccc21)NO
490 | CO/N=C1/C(=O)N(CCCCCCC(=O)NO)c2ccc(Cl)cc21
110 | O=C(CCCCCCN1C(=O)/C(=N\O)c2cc(F)ccc21)NO
1350 | CO/N=C1\C(=O)N(CCCCCCC(=O)NO)c2ccc([N+](=O)[O-])cc21
260 | CO/N=C1/C(=O)N(CCCCCCC(=O)NO)c2c(Cl)cccc21
